Assay [1] concerns the target T1, ScMreB5 (Spiroplasma citri, UniProt Q8VQG1).
T1 construct: gene mreB5; monomer about 38 kD, forms filaments
T1 sequence (Q8VQG1 1-352): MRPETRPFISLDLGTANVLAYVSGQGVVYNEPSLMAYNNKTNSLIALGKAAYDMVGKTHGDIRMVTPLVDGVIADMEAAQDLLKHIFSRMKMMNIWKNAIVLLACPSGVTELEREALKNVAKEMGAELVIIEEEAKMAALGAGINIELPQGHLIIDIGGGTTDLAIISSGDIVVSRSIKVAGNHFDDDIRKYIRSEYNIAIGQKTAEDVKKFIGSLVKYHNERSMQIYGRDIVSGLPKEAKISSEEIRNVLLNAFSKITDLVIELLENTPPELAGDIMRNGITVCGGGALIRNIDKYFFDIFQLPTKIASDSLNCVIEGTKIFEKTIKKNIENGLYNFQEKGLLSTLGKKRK
Kind of assay: thermal shift (SYPRO Orange). The assay is classed as binding. The note with it: 2.6 µM protein, protein purified with ADP and MgCl2 added.

In assay [2] the target is T1, ScMreB5. Kind of assay: X-ray crystal structure, […] Å. The note with it: nucleotide-binding pocket; Mg2+ and K+ bound; 2 mM ADP, 2 mM MgCl2; ADP also co-purifies (HPLC).

As for `Nc1ncnc2c1ncn2[C@@H]1O[C@H](COP(=O)(O)OP(=O)(O)O)[C@@H](O)[C@H]1O` [ADP], on ScMreB5 [1] (1 mM ADP), the Tm result was “Thermal shift assays showed increased stability in the KCl buffer and upon addition of excess ADP”. Moreover, the “X-ray crystal structure, 2.3 Å” value on ScMreB5 [2] is listed as “ScMreB5 also crystallized in the presence of ADP (PDB accession no. 7BVZ)”.

Take `Nc1ncnc2c1ncn2[C@@H]1O[C@H](COP(=O)(O)OP(=O)(O)OP(=O)(O)O)[C@@H](O)[C@H]1O` [ATP]: the Tm result on ScMreB5 [1] (1 mM ATP) was “increased stability in the KCl buffer and upon addition of excess ADP or ATP”.

The record behind these values is PMC9195046, “Filament organization of the bacterial actin MreB is dependent on the nucleotide state” (The Journal of Cell Biology, 2022).
